What was measured:
[1] = molecular target: DNA gyrase subunit A/DNA gyrase subunit B (Mycobacterium tuberculosis (strain ATCC 25618 / H37Rv), UniProt P9WG45+P9WG47); test: Inhibition of Mycobacterium tuberculosis DNA gyrase supercoiling activity using relaxed pBR322 as substrate after 30 mins by agarose gel electrophoresis; type: protein-complex assay
Mus musculus [2] = test: Acute toxicity in Swiss albino mouse assessed as effect on SGOT levels at 5 mg/kg, po after 7 days (reference value: 15.11 +/- 1.25 U/L); type: organism-based; conditions: in vivo, 168 h
Mus musculus [3] = test: Acute toxicity in Swiss albino mouse assessed as effect on SGPT levels at 50 mg/kg, po after 7 days (reference value: 16.08 +/- 1.38 U/L); type: organism-based; conditions: in vivo, 168 h
Mus musculus [4] = test: Acute toxicity in Swiss albino mouse assessed as effect on GSH levels per mg of tissue protein at 1000 mg/kg, po after 7 days (reference value: 17.64 +/- 1.03 micromol); type: organism-based; conditions: in vivo, 168 h

Sequence of DNA gyrase subunit A/DNA gyrase subunit B (P9WG45 whole entry): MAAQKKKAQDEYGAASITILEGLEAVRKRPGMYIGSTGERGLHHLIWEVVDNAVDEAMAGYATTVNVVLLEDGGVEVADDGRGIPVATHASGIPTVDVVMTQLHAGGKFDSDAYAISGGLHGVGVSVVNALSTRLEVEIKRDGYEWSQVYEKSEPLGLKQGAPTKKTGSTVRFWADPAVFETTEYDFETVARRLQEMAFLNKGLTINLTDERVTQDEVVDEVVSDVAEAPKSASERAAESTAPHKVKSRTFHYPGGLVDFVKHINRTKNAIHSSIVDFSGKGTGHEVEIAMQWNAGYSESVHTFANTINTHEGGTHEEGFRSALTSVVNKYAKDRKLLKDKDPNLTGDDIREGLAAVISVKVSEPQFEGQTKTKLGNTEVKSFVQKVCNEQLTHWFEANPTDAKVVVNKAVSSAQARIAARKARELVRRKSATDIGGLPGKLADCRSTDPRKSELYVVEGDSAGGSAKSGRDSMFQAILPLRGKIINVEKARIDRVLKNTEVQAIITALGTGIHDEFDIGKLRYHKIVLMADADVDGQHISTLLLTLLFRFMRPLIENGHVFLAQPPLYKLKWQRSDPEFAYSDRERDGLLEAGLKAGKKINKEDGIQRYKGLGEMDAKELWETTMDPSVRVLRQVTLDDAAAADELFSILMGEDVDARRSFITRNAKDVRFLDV
Sequence of DNA gyrase subunit A/DNA gyrase subunit B (P9WG47 whole entry): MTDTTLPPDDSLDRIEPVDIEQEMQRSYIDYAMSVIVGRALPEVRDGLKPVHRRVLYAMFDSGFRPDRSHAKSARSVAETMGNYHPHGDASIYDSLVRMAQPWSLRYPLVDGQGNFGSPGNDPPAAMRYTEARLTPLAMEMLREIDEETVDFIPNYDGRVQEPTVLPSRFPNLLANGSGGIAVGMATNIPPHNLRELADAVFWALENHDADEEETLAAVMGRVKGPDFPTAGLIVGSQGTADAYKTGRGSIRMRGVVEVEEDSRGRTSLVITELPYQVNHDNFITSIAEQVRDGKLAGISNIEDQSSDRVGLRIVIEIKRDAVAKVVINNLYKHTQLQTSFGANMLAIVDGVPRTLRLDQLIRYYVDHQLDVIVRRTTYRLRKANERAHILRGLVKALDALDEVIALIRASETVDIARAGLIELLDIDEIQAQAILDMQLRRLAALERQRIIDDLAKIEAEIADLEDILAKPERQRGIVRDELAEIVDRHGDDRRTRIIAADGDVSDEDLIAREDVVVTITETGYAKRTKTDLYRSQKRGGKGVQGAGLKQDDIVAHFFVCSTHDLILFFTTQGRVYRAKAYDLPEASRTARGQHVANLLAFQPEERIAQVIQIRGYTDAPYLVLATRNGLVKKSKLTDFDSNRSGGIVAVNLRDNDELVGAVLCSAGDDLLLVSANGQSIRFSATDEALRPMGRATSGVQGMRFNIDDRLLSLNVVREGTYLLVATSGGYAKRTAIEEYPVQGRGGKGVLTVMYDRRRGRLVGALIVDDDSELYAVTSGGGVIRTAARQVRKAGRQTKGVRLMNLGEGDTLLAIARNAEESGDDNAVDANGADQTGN

COc1ccc2c(c1)nc(-c1ccccc1OC)n2Cc1ccccc1OC
IC50 [1]: 358 µM | Activity (Mus musculus [2]): 11.96 U/L | Activity (Mus musculus [3]): 15.98 U/L | Activity (Mus musculus [4]): 19.34 µmol

Reference: ChEMBL document CHEMBL4229515, “A novel synthesis of 2-arylbenzimidazoles in molecular sieves-MeOH system and their antitubercular activity” (Bioorg Med Chem, 2018)
